Laboratory results reported in patent US11088380B2, “Electrolyte solution for redox flow battery and redox flow battery comprising same” (Seoul National University R&DB Foundation, priority 2013, dated 2021).
≈ marks a conversion by molar mass, not a printed value.

Assay: physchem
Conditions: not given
Procedure: Menadione purchased from Sigma Aldrich was dissolved in propylene carbonate solution comprising tetrafluoroborate tetraethylammonium and the maximum amount of Menadione that can be dissolved was checked.
1,4-Naphthoquinone purchased from Sigma Aldrich was dissolved in propylene carbonate solution comprising tetrafluoroborate tetraethylammonium and the maximum amount of 1,4-Naphthoquinone that can be dissolved was checked.
N,N,N′N′-tetramethyl-p-phenylenediamine purchased from Alfa aesar was dissolved in propylene carbonate solution comprising tetrafluoroborate tetraethylammonium and the maximum amount of N,N,N′N′-tetramethyl-p-phenylenediamine that can be dissolved was checked.
Tetrathiafulvalene purchased from Sigma Aldrich was dissolved in propylene carbonate solution comprising tetrafluoroborate tetraethylammonium and the maximum amount of tetrathiafulvalene that can be dissolved was checked.
N,N-dimethyl-p-phenylenediamine purchased from Sigma Aldrich was dissolved in propylene carbonate solution comprising tetrafluoroborate tetraethylammonium and the maximum amount of N,N-dimethyl-p-phenylenediamine that can be dissolved was checked.
Triphenylamine purchased from Sigma Aldrich was dissolved in propylene carbonate solution comprising tetrafluoroborate tetraethylammonium and the maximum amount of triphenylamine that can be dissolved was checked.
4-Hydroxydiphenylamine purchased from Sigma Aldrich was dissolved in propylene carbonate solution comprising tetrafluoroborate tetraethylammonium and the maximum amount of 4-hydroxydiphenylamine that can be dissolved was checked.
4-Amino-diphenylamine purchased from Sigma Aldrich was dissolved in propylene carbonate solution comprising tetrafluoroborate tetraethylammonium and the maximum amount of 4-amino-diphenylamine that can be dissolved was checked.
Thianthrene purchased from Aldrich was dissolved in propylene carbonate solution comprising tetrafluoroborate tetraethylammonium and the maximum amount of thianthrene that can be dissolved was checked.

Point of comparison: C1=CSC(=C2SC=CS2)S1 [Example 5, Tetrathiafulvalene], solubility 600 mM (≈ 123 mg/mL). Against it:
- Nc1ccc(Nc2ccccc2)cc1 [Example 9, 4-amino-diphenylamine] — 6.7-fold higher, 4000 mM (≈ 737 mg/mL)

Same assay, conditions: maximum amount dissolved in propylene carbonate solution comprising tetrafluoroborate tetraethylammonium

Point of comparison: CN(C)c1ccc(N(C)C)cc1 [Example 4, N,N,N′N′-tetramethyl-p-phenylenediamine], solubility 2000 mM (≈ 329 mg/mL). Against it:
- Oc1ccc(Nc2ccccc2)cc1 [Example 8, 4-hydroxydiphenylamine] — 2-fold higher, 4000 mM (≈ 741 mg/mL)

Same assay, conditions: organic solvent or mixture, thermodynamic from solid

Point of comparison: c1ccc2c(c1)Sc1ccccc1S2 [Comparative example 2, Thianthrene, reference compound], solubility 100 mM (≈ 21.6 mg/mL). Against it:
- CC1=CC(=O)c2ccccc2C1=O [Example 2, menadione] — 3-fold higher, 300 mM (≈ 51.7 mg/mL)
- O=C1C=CC(=O)c2ccccc21 [Example 3, 1,4-Naphthoquinone] — 5-fold higher, 500 mM (≈ 79.1 mg/mL)
- CN(C)c1ccc(N)cc1 [Example 6, N,N-dimethyl-p-phenylenediamine] — 20-fold higher, 2000 mM (≈ 272 mg/mL)
- c1ccc(N(c2ccccc2)c2ccccc2)cc1 [Example 7, Triphenylamine] — lower, < 100 mM
